In ChEMBL document CHEMBL1153803, “Parallel synthesis of chiral pentaamines and pyrrolidine containing bis-heterocyclic libraries. Multiple scaffolds with multiple building blocks: a double diversity for the identification of new antitubercular compounds” (Bioorg Med Chem Lett, 2009):
Values after ≈ are worked out from the molar mass of the structure shown.

Tests used:
[1] = test system: Mycobacterium tuberculosis; test: Antimicrobial activity against Mycobacterium tuberculosis H37Rv ATCC 27294 by microplate Almar blue assay; assay type: functional; settings: Mycobacterium tuberculosis, H37Rv ATCC 27294; read-out: MIC
[2] = Selective index, the ratio of IC50 in the african green monkey Vero cells to the MIC to Mycobacterium tuberculosis H37Rv ATCC 27294; assay type: functional
[3] = test system: Mycobacterium tuberculosis; test: Antimicrobial activity against Mycobacterium tuberculosis H37Rv ATCC 27294 at 6.25 ug/mL by broth microdilution assay; assay type: functional
Vero = test: Cytotoxicity against african green monkey Vero cells at after 72 hrs by MTT assay; assay type: cell-based, Chlorocebus sabaeus; settings: Chlorocebus sabaeus, Vero, 72 h; read-out: IC50

SMILES | MIC [1] [µg/mL] | Selectivity Index [2] | inhibition at 6.25 µg/mL [3] [%] | IC50 (Vero) [µg/mL]
c1ccc(CCN2CCN([C@H](Cc3ccc4ccccc4c3)CN3CCCC3CN3CCNC[C@@H]3Cc3ccccc3)C[C@@H]2Cc2ccccc2)cc1 (some centres undefined) | 3.9 (≈ 5.52 µM) | 0.27 | 100 | 1.06 (≈ 1.5 µM)
Fc1ccc(CCN2CCN([C@@H](Cc3ccccc3)CN3CCCC3CN3CCNC[C@@H]3Cc3ccccc3)C[C@@H]2Cc2ccccc2)cc1 (some centres undefined) | 3.9 (≈ 5.79 µM) | 0.27 | 98 | 1.05 (≈ 1.56 µM)
Clc1ccc(CCN2CCN([C@@H](Cc3ccccc3)CN3CCCC3CN3CCNC[C@@H]3Cc3ccccc3)C[C@@H]2Cc2ccccc2)cc1Cl (some centres undefined) | 3.9 (≈ 5.38 µM) | 0.27 | 99 | 1.07 (≈ 1.48 µM)
CC(C)[C@@H](CN1CCCC1CN1CCNC[C@@H]1Cc1ccccc1)N1CCN(CCc2ccccc2)[C@@H](Cc2ccccc2)C1 (some centres undefined) | 3.9 (≈ 6.42 µM) | 0.26 | 100 | 1 (≈ 1.64 µM)
CCCC[C@@H](CN1CCCC1CN1CCNC[C@@H]1Cc1ccccc1)N1CCN(CCc2ccccc2)[C@@H](Cc2ccccc2)C1 (some centres undefined) | 3.9 (≈ 6.27 µM) | 0.26 | 100 | 1 (≈ 1.61 µM)
c1ccc(CCN2CCN([C@@H](Cc3ccc4ccccc4c3)CN3CCCC3CN3CCNC[C@@H]3Cc3ccccc3)C[C@@H]2Cc2ccccc2)cc1 (some centres undefined) | 3.9 (≈ 5.52 µM) | 0.26 | 100 | 1 (≈ 1.42 µM)
CCOc1ccc(CCN2CCN([C@@H](Cc3ccccc3)CN3CCCC3CN3CCNC[C@@H]3Cc3ccccc3)C[C@@H]2Cc2ccccc2)cc1 (some centres undefined) | 3.9 (≈ 5.57 µM) | 0.26 | 98 | 1.03 (≈ 1.47 µM)
CCCCCCCN1CCN([C@@H](Cc2ccccc2)CN2CCCC2CN2CCNC[C@@H]2Cc2ccccc2)C[C@@H]1Cc1ccccc1 (some centres undefined) | 3.9 (≈ 6 µM) | 0.26 | 99 | 1.03 (≈ 1.58 µM)
CCC(C)CCN1CCN([C@@H](Cc2ccccc2)CN2CCCC2CN2CCNC[C@@H]2Cc2ccccc2)C[C@@H]1Cc1ccccc1 (some centres undefined) | 3.9 (≈ 6.13 µM) | 0.26 | 96 | 1 (≈ 1.57 µM)
c1ccc(C[C@H]2CNCCN2CC2CCCN2C[C@H](Cc2ccccc2)N2CCN(CCc3ccc(-c4ccccc4)cc3)[C@@H](Cc3ccccc3)C2)cc1 (some centres undefined) | 3.9 (≈ 5.33 µM) | 0.26 | 97 | 1 (≈ 1.37 µM)
CC(C)C[C@@H](CN1CCCC1CN1CCNC[C@@H]1Cc1ccccc1)N1CCN(CCc2ccccc2)[C@@H](Cc2ccccc2)C1 (some centres undefined) | 3.9 (≈ 6.27 µM) | 0.25 | 100 | 0.99 (≈ 1.59 µM)
c1ccc(CCN2CCN([C@@H](Cc3ccccc3)CN3CCCC3CN3CCNC[C@@H]3Cc3ccccc3)C[C@H]2CC2CCCCC2)cc1 (some centres undefined) | 3.9 (≈ 5.89 µM) | 0.25 | 98 | 0.97 (≈ 1.47 µM)
c1ccc(CCN2CCN([C@H](CC3CCCCC3)CN3CCCC3CN3CCNC[C@@H]3Cc3ccccc3)C[C@@H]2Cc2ccccc2)cc1 (some centres undefined) | 3.9 (≈ 5.89 µM) | 0.24 | 98 | 0.92 (≈ 1.39 µM)
c1ccc(C[C@H]2CNCCN2CC2CCCN2C[C@H](Cc2ccccc2)N2CCN(CC3(c4ccccc4)CC3)[C@@H](Cc3ccccc3)C2)cc1 (some centres undefined) | 3.9 (≈ 5.72 µM) | 0.24 | 99 | 0.94 (≈ 1.38 µM)
Cc1ccc(CN2CCN([C@@H](Cc3ccccc3)CN3CCCC3CN3CCNC[C@@H]3Cc3ccccc3)C[C@@H]2Cc2ccccc2)cc1 (some centres undefined) | 3.9 (≈ 5.95 µM) | 0.23 | 98 | 0.88 (≈ 1.34 µM)
CC(CCN1CCN([C@@H](Cc2ccccc2)CN2CCCC2CN2CCNC[C@@H]2Cc2ccccc2)C[C@@H]1Cc1ccccc1)c1ccccc1 (some centres undefined) | 3.9 (≈ 5.7 µM) | 0.22 | 99 | 0.87 (≈ 1.27 µM)
c1ccc(CCN2CCN([C@@H](Cc3ccccc3)CN3CCCC3CN3CCNC[C@H]3Cc3ccccc3)C[C@@H]2Cc2ccccc2)cc1 (some centres undefined) | 3.9 (≈ 5.95 µM) | 0.22 | 99 | 0.86 (≈ 1.31 µM)
c1ccc(C[C@H]2CNCCN2CC2CCCN2C[C@H](Cc2ccccc2)N2CCN(CCC3CC4CCC3C4)[C@@H](Cc3ccccc3)C2)cc1 (some centres undefined) | 3.9 (≈ 5.79 µM) | 0.22 | 97 | 0.87 (≈ 1.29 µM)
c1ccc(CCN2CCN([C@@H](Cc3ccccc3)CN3CCCC3CN3CCNC[C@@H]3Cc3ccccc3)C[C@@H]2CC2CCCCC2)cc1 (some centres undefined) | 3.9 (≈ 5.89 µM) | 0.21 | 99 | 0.82 (≈ 1.24 µM)
Fc1cccc(CCN2CCN([C@@H](Cc3ccccc3)CN3CCCC3CN3CCNC[C@@H]3Cc3ccccc3)C[C@@H]2Cc2ccccc2)c1 (some centres undefined) | 3.9 (≈ 5.79 µM) | 0.21 | 98 | 0.8 (≈ 1.19 µM)
CCC(C)CN1CCN([C@@H](Cc2ccccc2)CN2CCCC2CN2CCNC[C@@H]2Cc2ccccc2)C[C@@H]1Cc1ccccc1 (some centres undefined) | 3.9 (≈ 6.27 µM) | 0.18 | 97 | 0.7 (≈ 1.13 µM)
c1ccc(C[C@H]2CNCCN2CC2CCCN2C[C@H](Cc2ccccc2)N2CCN(CC3CCCCC3)[C@@H](Cc3ccccc3)C2)cc1 (some centres undefined) | 3.9 (≈ 6.02 µM) | 0.18 | 100 | 0.71 (≈ 1.1 µM)
c1ccc(C[C@H]2CNCCN2CC2CCCN2C[C@H](Cc2ccccc2)N2CCN(CCC3CCCCC3)[C@@H](Cc3ccccc3)C2)cc1 (some centres undefined) | 3.9 (≈ 5.89 µM) | 0.16 | 99 | 0.62 (≈ 0.937 µM)
c1ccc(C[C@H]2CNCCN2CC2CCCN2C[C@H](Cc2ccccc2)N2CCN(CCCC3CCCC3)[C@@H](Cc3ccccc3)C2)cc1 (some centres undefined) | 3.9 (≈ 5.89 µM) | 0.11 | 100 | 0.42 (≈ 0.634 µM)
COc1cccc(CCN2CCN([C@@H](Cc3ccccc3)CN3CCCC3CN3CCNC[C@@H]3Cc3ccccc3)C[C@@H]2Cc2ccccc2)c1 (some centres undefined) | 3.9 (≈ 5.69 µM) | 0.08 | 99 | 0.32 (≈ 0.466 µM)
COc1ccc(CCN2CCN([C@@H](Cc3ccccc3)CN3CCCC3CN3CCNC[C@@H]3Cc3ccccc3)C[C@@H]2Cc2ccccc2)cc1 (some centres undefined) | 3.9 (≈ 5.69 µM) | 0.08 | 99 | 0.33 (≈ 0.481 µM)
